Source: patent US20180087086A1, “CELL EGRESS AND INVASION INHIBITORS AND THEIR USE AS ANTIPARASITICAL AGENTS” (THE JOHNS HOPKINS UNIVERSITY, priority 2015, published 2018)

Tests used:
[1] = target: P. falciparum aldolase in the presence of TRAP (Plasmodium falciparum, UniProt Q7KQL9); test: aldolase enzyme activity assay, P. falciparum aldolase in the presence of TRAP; assay type: biochemical; details: in the presence of TRAP and the compounds
Excerpt: (§1) FIGS. 16A-16D depict an aldolase enzyme activity assay. (A) Cartoon and surface representation of aldolase with TRAPpep bound (magenta, sticks) (PDB entry 2pc4), overlapping the F16BP (green, sticks) substrate binding site (PDB entry 4ald), via PyMOL. (B) Coupled enzyme assay to measure aldolase activity via NADH consumption as measured at 340 nm. (C) Concentration-dependent effect of compounds on PfAldolase inhibition in the presence of PbTRAP peptide. Activity is normalized to the PbTRAP control, which reduces Vmax to 50% of enzyme without PbTRAP. (D) PfAldolase activity in the presence of compounds to determine direct inhibition of enzyme by the compounds. Activity is normalized to the PfAldolase control measured Vmax. Standard error means plotted for activity assays and standard deviation for SPR data.
(§2) Dose-Dependent Enzymatic Inhibition of Compounds on P. falciparum Aldolase and Rabbit Aldolase as a Surrogate for Human Aldolase.

P. berghei sporozoites = test: trail radius of gliding sporozoites (ImageJ); assay type: cell-based; details: 62.5 μM; 130-150 trail radii; p-value <0.0001
Protocol: The trail radius was measured using ImageJ and the statistical analyses to determine standard error mean and t-test were performed using GraphPad.
The gliding phenotype was altered to determine whether the compounds were having off-target effects. While quantifying the number of deposited trails, the trail diameter in the presence of compounds was altered. An altered trail diameter is more likely due to either a direct effect on the motor or an effect on sporozoite shape. The diameter of the circular trails deposited by the parasites in the DMSO control was measured and in the presence of three compounds at 62.5 μM (FIG. 8). This concentration was chosen because at higher concentrations, there were not enough sporozoite trails to measure to do a statistical analysis of the results. Using ImageJ, circles were fit to trails in multiple images to measure 130-150 trail radii. The average trail radii increased in the presence of compounds 4, 17, and 18 with a p-value <0.0001. The increase in average trail size was 6.3 microns, 2.5 microns, and 3.6, for compounds 4, 17, and 18, respectively.

sporozoites [2] = test: gliding motility assay with compound washout (reversibility); assay type: cell-based
Protocol: FIG. 13 B is a series of photomicrographs that show representative images from slides of gliding sporozoites. DMSO treated sporozoites (a, upper left) with circular gliding pattern versus (b, upper right) pyrazole-urea compound treated sporozoites with a unique wavy line gliding pattern. Below are images of a compound 4 washout slide at 7.8 μM showing a similar wavy gliding patterns in addition to circular gliding (c, d).
A gliding motility assay with a compound washout step was also performed to measure the reversibility of the compound's effects. The sporozoites were incubated at for a total of 20 min with the compound before they were washed and re-suspend and allowed to glide.

rabbit aldolase = target: T1, rabbit aldolase (Oryctolagus cuniculus, UniProt P00883); test: aldolase enzyme activity assay, rabbit aldolase; assay type: biochemical; details: surrogate for human aldolase
T1 sequence (P00883 1-364): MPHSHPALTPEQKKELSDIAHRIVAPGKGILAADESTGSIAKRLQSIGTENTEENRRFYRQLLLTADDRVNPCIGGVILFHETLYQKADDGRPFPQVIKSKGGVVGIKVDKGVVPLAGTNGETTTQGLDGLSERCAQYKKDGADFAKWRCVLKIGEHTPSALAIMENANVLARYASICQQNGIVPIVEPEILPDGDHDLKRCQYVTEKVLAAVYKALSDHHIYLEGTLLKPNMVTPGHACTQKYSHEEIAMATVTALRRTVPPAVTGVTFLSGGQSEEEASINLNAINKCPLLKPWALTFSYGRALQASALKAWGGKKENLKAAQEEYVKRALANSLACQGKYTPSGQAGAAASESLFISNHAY
Excerpt: as §1, §2

Plasmodium parasite = test: cytocidal activity (assay not specified); assay type: cell-based; details: 60 μM concentration
Excerpt: As described herein, inferring from sequence identity between TRAP and CTRP, the Aldolase-CTRP complex is inhibited during the mosquito stage.

sporozoites [3] = test: sporozoite viability, 2 dye system of ethidium and calcein-AM; assay type: cell-based; details: for viability at 62.5 µM: 0.25 h, 15 min at room temperature, DMSO 96%; for sporozoite viability (ethidium/calcein-AM): extended 15 min incubation at 37° C.
Protocol: FIG. 12A-FIG. 12C is a series of bar charts that show results of sporozoite viability assays. […] The total number of sporozoites was determined from phase images and the number of non-viable sporozoites from the count of red fluorescing sporozoites.
To further investigate viability, a 2 dye system of ethidium and calcein-AM was used to measure both membrane permeability, a marker of death, and enzyme activity, a marker of viability (FIG. 12B). Live cells with intact membranes are impermeable to the ethidium DNA dye but are permeable to the calcein-AM dye, which can interact with active esterases and will fluoresce green. Dying cells allow the ethidium to cross the membrane and interact with DNA, fluorescing red. This two color readout allowed discrimination between live versus dead sporozoites. Sporozoites were incubated at room temperature with two different concentrations of compounds for 15 min and then counted. […] Compound 4 and 18 at 62.5 μM reduced sporozoite viability to 82% and 88%, respectively. At these concentrations, assays could be performed such that the compounds would not kill the parasite. Instead, the compounds merely impaired parasite mobility, indicating an on-target effect of the small molecule on Aldolase-TRAP. By modulating this interaction, despite not killing the parasites at that point, a dramatic reduction in liver cell invasion was observed (FIG. 14A). […] As these dyes are unable to be fixed and sporozoites are not viable for long periods of time, it is possible that there are some viability variances due to difference in time from incubation with the dye until counting.

P. falciparum aldolase in the presence of TRAP, sequence (Q7KQL9 whole entry): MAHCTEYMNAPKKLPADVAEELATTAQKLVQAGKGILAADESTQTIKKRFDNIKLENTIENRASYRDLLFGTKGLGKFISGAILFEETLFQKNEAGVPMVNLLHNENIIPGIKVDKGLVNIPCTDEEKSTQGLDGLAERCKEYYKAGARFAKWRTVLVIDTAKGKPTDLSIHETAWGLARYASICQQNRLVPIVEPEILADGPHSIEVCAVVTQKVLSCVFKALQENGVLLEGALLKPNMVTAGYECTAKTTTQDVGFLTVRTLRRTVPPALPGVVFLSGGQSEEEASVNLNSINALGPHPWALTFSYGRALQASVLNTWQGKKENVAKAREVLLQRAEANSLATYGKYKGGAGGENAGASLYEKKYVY

Compound | inhibition of P. falciparum aldolase [1] | increase in average trail size (trail radius) vs DMSO control (P. berghei sporozoites) [microns] | reversibility of gliding effect after washout (sporozoites [2]; any concentration) | number of high gliding parasites after washout, relative to DMSO control (sporozoites [2]; less than 8 μM) [%] | total number of parasites gliding after washout (sporozoites [2]; less than 8 μM) | enzyme inhibition on rabbit aldolase (rabbit aldolase) | cytocidal activity (Plasmodium parasite) | viability at 62.5 µM (sporozoites [3]) [%] | sporozoite viability (ethidium/calcein-AM) (sporozoites [3]) | reversibility of gliding effect after washout (sporozoites [2]; 31.25 μM) | reversibility of gliding effect after washout (sporozoites [2]; 62.5 μM) | reversibility of gliding effect after washout (sporozoites [2]; 15.625 and 7.8125 μM, 20 min incubation before wash)
Brc1ccc(Nc2nc3ccccc3nc2Nc2ccc(Br)cc2)cc1 [Compound 4, N,N′-bis(4-bromophenyl)-2,3-quinoxalinediamine] | inhibited | 6.3 | no complete reversibility | 10 | comparable to wild type | no enzyme inhibition | cytocidal activity | 82 | 66% | – | – | –
CCCCn1c(N)c(C(=O)NCc2ccccc2)c2nc3ccccc3nc21 [Compound 18, 2-amino-N-benzyl-1-butyl-1H-pyrrolo[2,3-b]quinoxaline-3-carboxamide] | – | 3.6 | – | – | – | – | – | 88 | did not differ from the control | the number of high-gliding parasites increased | little reversibility | completely reversible
